From patent US20160367497A1, “METHODS AND COMPOSITIONS FOR TREATING NEUROPATHIES” (Washington University, priority 2007, published 2016) come the findings set out here.

The subject of test [1] is DRG neuronal explant cultures. Kind of test: in vitro Wallerian degeneration assay, DRG explant neurite transection. In kind it is cell-based, mouse. The protocol:
To identify the mechanism of delayed axonal degeneration mediated by the Wlds protein, we employed an in-vitro Wallerian degeneration model. Primary DRG explant neurons were infected with lentivirus expressing the appropriate proteins, and axons were injured by either removal of the neuronal cell body (transection) or growth in vincristine (toxic).
Mouse DRG explants from E12.5 embryos were cultured in the presence of 1 nM nerve growth factor. Non-neuronal cells were removed from the cultures by adding 5-fluorouracil to the culture medium. Transection of neurites was performed at 10-20 DIV using an 18-gauge needle to remove the neuronal cell bodies. Incubation with β-nicotinamide adenine dinucleotide (Sigma) or Sirtinol (Calbiochem) was performed using conditions indicated in the text or figures.
Quantitative analysis of axonal degeneration was performed as previously described (Zhai, et al., Neuron 39:217-25, 2003). Briefly, the cultures were examined using phase contrast microscopy at the indicated times. Axons with a fragmented, non-refractile appearance were designated as “degenerated.” At each time point, at least 200 singly distinguishable axons were blindly scored from several randomly taken images of each culture. Each condition was tested in triplicate explants in each experiment. Results were obtained from 2-4 independent experiments for each condition. Statistical analysis was performed by Student's T test. For calculations of neurite-covered area, digitally captured images from quadruplicate samples of two independent experiments were analyzed using analysis 3.1 software (Soft Imaging System, Lakewood, Colo.).
Cell culture, in vitro axotomy, and quantification of axonal degeneration. Mouse DRG explants from E12.5 embryos were cultured in the DMEM containing 10% FCS and 1 nM nerve growth factor. Non-neuronal cells were removed from the cultures by adding 5-fluorouracil to the culture media. Transection of neurites was performed at 14-21 DIV using an 18-gauge needle to remove the neuronal cell bodies. Lentiviral expression vectors were generated. Lentiviral infection was performed 3-7 days prior to axonal transection for 24 hr. Quantitative analysis of neurite degeneration was performed.

In a further test the test system is AMPK. As to the kind of experiment: AMPK and ACC phosphorylation in cortical neurons. In kind it is cell-based, mouse. As to conditions: for effect on resveratrol-induced AMPK phosphorylation: cortical neurons, resveratrol 10 μM, 2 h. The source says: FIG. 16A-F illustrates that resveratrol activates AMP kinase in cortical neurons through Lkb1 and CaMKKβ. (A) Cortical neuron cultures were established from E 13.5 Lkb1 flox/flox embryos and infected with lentivirus expressing Cre recombinase (FCIV-Cre) or GFP only (FUGW control). Lentiviral infection of cortical neurons was monitored by GFP fluorescence (A). […] Lkb1 flox/flox cortical neurons were infected with FUGW or FCIV-Cre and treated as indicated. AMPK or ACC was immunoprecipitated from neuronal lysates and western blots were probed with the respective phospho-specific antibodies. […] Lysates from AICAR treated cortical neurons is included as a positive control. (E, F) Embryonic cortical neurons were cultured from wild type and SIRT1-deficient littermates derived from SIRT1 heterozygous matings. […] Levels of total AMPK and ACC are shown in the bottom panels of C, D, E and F.
Cell culture and Reagents. Neuro2 cells obtained from ATCC were grown in MEM with 1.5 g/L sodium bicarbonate, 0.1 mM nonessential amino acids, 0.1 mM sodium pyruvate, 2 mM L-glutamine with 10% FCS. For differentiation, cells were switched to serum-starvation medium (containing 0.2% FCS). For neurite outgrowth measurements, experiments were done in quadruplicate and 100 neurites per well were randomly measured using the Metamorph software. Dorsal root ganglia sensory and cortical neurons were established from E13.5 mouse embryos, maintained in neurobasal medium supplemented with B27 (and NGF for DRG neurons) and infected with lentiviruses as described (Araki et al., 2004, Science 305:1010-1013; Hawley et al., 2005, Cell Metab 2:21-23). Resveratrol was a gift from Sirtris Pharmaceuticals (Cambridge Mass.) and AICAR was obtained from Toronto Research (North York, Canada). Splitomycin and Compound C were purchased from Biomol (Plymouth Meeting, Pa.) and Calbiochem (San Diego, Calif.). Sirtinol and nicotinamide were purchased from Sigma (Saint Louis, Mo.)
Plasmids and viruses. The dominant negative (dnAMPK) and constitutively active (caAMPK) plasmids were gifts from Russell Jones (University of Pennsylvania, Philadelphia Pa.), and pCXN-Cre was a gift of Inder Verma (Salk Institute, San Diego, Calif.). All constructs were subcloned into the lentiviral shuttle vector FCIV and verified by nucleotide sequence analysis. Viruses were prepared as previously described (Araki et al., 2004, Science 305:1010-1013). Protein and mRNA analysis. Immunoprecipitations and western blot analysis were performed by standard methods using antibodies directed against total AMPK, phosphorylated AMPK, total ACC or phosphorylated ACC that were obtained from Cell Signaling Technology (Beverley, Mass.). The phospho-AMPK antibody detects endogenous AMPK α1 and α2 when phosphorylated at threonine 172. The LKB1 antibody was purchased from Upstate (Lake Placid, N.Y.). Quantitative RT-PCR analysis was performed using Sybr-Green methodology on a model 7700 instrument (Applied Biosystems) as previously described (Araki et al., 2004, Science 305:1010-1013). Primer sequences were those used in previous studies (Motoshima, et al., 2006, J Physiol 574:63-71).
Resveratrol activation of AMPK in Neuro2a cells along with the crucial role of AMPK in promoting neurite outgrowth in these cells encouraged us to examine this pathway in primary neurons. We treated E13.5 mouse dorsal root ganglia (DRG) sensory and cortical neuron cultures with resveratrol (10 μM) or AICAR (1 mM). […]

For the compound `NC(=O)c1cccnc1` [Nam, nicotinamide], in test [1] (1 mM applied for 24 hours before neurite transection), the “neurite protection after transection” value is reported as “had no effect”. Further, the “effect on resveratrol-induced AMPK phosphorylation” value with AMPK is recorded as “none of the SIRT inhibitors”.

For the compound `O=C1CCc2c(ccc3ccccc23)O1` [splitomycin], in the test on AMPK, the “effect on resveratrol-induced AMPK phosphorylation” value is on record as “none of the SIRT inhibitors”. In the case of `CC(NC(=O)c1ccccc1/N=C/c1c(O)ccc2ccccc12)c1ccccc1` (centres unmarked) [Sirtinol], in test [1] (neurons cultured in 1 mM NAD, Sirtinol 100 μM, 3AB 20 mM or siRNA lentivirus, 12 to 72 hr after transection), the “effect on NAD-dependent axonal protection (NDAP)” value is recorded as “effectively blocked NDAP”. The “effect on resveratrol-induced AMPK phosphorylation” value with AMPK is “none of the SIRT inhibitors”. Regarding `Oc1ccc(C=Cc2cc(O)cc(O)c2)cc1` [resveratrol], the “axonal degradation after axotomy” value in test [1] (10~100 μM, treated prior to axotomy) is on record as “decrease in axonal degradation that was comparable to that obtained using NAD”. Further, the “phosphorylation of AMPK and ACC” value in the test on AMPK (E13.5 cortical neurons, 10 μM) was “stimulated phosphorylation of AMPK and ACC”.

With `O=C(O)c1ccc2c3c1cccc3c(=O)n1c3ccccc3nc21` [STO 609], the “effect on resveratrol-induced AMPK phosphorylation” value in the test on AMPK is “did inhibit AMPK and ACC phosphorylation”.
